Holding throughout (assay): FlexStation membrane potential dye functional assay, HEK293 cells
What all share (type): cell-based
Common to all, as to set-up: expressed in transfected cells; host or cells: HEK293

The target in assay [1] is T1, 5-HT3A receptor Y73S (Homo sapiens, UniProt P46098, Y68S).
T1 sequence (P46098 24-478 Y68S): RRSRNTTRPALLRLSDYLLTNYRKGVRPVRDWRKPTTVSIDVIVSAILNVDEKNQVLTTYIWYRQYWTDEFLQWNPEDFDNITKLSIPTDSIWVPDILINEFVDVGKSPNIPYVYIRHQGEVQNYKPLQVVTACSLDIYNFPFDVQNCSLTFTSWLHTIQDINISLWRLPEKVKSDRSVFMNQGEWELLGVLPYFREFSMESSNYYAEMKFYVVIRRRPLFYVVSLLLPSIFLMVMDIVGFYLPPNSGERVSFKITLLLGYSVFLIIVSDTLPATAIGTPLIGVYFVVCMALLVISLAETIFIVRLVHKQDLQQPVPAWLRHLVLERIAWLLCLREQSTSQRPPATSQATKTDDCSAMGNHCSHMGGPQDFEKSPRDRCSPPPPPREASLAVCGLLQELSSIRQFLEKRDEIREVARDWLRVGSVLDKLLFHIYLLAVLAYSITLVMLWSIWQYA
Conditions: 5-HT3A Y73S.

In assay [2] the target is T2, WT 5-HT3A receptor (Homo sapiens, UniProt P46098).
T2 sequence (P46098 24-478): T1 sequence (P46098 24-478 Y68S) with S45Y

Assay [3] has as its target T3, 5-HT3A receptor Y73F (Homo sapiens, UniProt P46098, Y68F).
T3 sequence (P46098 24-478 Y68F): T1 sequence (P46098 24-478 Y68S) with S45F
Conditions: 5-HT3A Y73F.

In assay [4] the target is T4, WT 5-HT3AB receptor (Homo sapiens, UniProt O95264+P46098).
T4 sequence (P46098 24-478): T1 sequence (P46098 24-478 Y68S) with S45Y
T4 sequence (O95264 22-441): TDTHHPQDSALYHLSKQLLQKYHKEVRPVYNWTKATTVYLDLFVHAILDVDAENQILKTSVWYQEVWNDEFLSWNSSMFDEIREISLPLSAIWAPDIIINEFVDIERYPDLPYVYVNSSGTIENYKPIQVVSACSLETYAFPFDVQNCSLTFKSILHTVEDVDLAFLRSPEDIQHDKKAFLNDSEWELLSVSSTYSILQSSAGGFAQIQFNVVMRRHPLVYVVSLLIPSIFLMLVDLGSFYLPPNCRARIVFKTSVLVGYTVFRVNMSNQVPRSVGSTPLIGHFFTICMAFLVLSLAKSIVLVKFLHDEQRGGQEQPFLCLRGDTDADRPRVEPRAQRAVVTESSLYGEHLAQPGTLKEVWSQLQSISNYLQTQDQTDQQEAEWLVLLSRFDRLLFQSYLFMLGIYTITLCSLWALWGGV

Assay [5] deals with T5, 5-HT3A receptor D165K (Homo sapiens, UniProt P46098, D160K).
T5 sequence (P46098 24-478 D160K): T1 sequence (P46098 24-478 Y68S) with S45Y, D137K
Conditions: 5-HT3A D165K.

The mark [6] stands for this setting: inhibition of 5-HT (EC50 concentration) response, 45 min preincubation.

The structures appear in SMILES notation. Changes are numbered by the printed parent chain. Values joined by “and” are separate entries in the source; they are usually repeats but may differ in a detail not shown here. Equal values may be shown once.

The text below walks through data of PMC3898987 (Bioorganic & Medicinal Chemistry, 2013).

On to `NCCc1c[nH]c2ccc(O)cc12` [5-HT, serotonin], for which the “Hill Coefficient” value in assay [1] (5-HT concentration-response) was 2.0 ± 0.3; in assay [2] (5-HT concentration-response), 2.3 and 2.3 ± 0.2; in assay [3] (5-HT concentration-response), 2.3 ± 0.3; in assay [4] (5-HT concentration-response) it was 1.3 and 1.3 ± 0.2; in assay [5] (5-HT concentration-response), 3.0 ± 0.3.

Turning to `O=C1c2cccc3c2[C@H](CCC3)CN1[C@@H]1CN2CCC1CC2` [Palonosetron], the IC50 (in general, the midpoint of a concentration-inhibition curve) in assay [1] (setting [6]) was 3.64 ± 1.1 nM; in assay [2] (setting [6]) it was 0.83 ± 0.49 nM; in assay [3] (setting [6]) it was 1.23 ± 0.15 nM; in assay [4] (setting [6]), 0.88 ± 0.15 nM; in assay [5] (setting [6]), 1.3 ± 0.43 nM.
